From US20060121136A1, “Hypotensive agent and method for producing same” (National Institute of Advanced Industrial Science and …, priority 2003, published 2006) come the findings set out here.

One experiment concerns the target T1, angiotensin-converting enzyme (ACE) (Oryctolagus cuniculus, UniProt P12822).
T1 construct: purchased Wako Jun-yaku A6778 (Lot No.)
T1 sequence (P12822 34-1310): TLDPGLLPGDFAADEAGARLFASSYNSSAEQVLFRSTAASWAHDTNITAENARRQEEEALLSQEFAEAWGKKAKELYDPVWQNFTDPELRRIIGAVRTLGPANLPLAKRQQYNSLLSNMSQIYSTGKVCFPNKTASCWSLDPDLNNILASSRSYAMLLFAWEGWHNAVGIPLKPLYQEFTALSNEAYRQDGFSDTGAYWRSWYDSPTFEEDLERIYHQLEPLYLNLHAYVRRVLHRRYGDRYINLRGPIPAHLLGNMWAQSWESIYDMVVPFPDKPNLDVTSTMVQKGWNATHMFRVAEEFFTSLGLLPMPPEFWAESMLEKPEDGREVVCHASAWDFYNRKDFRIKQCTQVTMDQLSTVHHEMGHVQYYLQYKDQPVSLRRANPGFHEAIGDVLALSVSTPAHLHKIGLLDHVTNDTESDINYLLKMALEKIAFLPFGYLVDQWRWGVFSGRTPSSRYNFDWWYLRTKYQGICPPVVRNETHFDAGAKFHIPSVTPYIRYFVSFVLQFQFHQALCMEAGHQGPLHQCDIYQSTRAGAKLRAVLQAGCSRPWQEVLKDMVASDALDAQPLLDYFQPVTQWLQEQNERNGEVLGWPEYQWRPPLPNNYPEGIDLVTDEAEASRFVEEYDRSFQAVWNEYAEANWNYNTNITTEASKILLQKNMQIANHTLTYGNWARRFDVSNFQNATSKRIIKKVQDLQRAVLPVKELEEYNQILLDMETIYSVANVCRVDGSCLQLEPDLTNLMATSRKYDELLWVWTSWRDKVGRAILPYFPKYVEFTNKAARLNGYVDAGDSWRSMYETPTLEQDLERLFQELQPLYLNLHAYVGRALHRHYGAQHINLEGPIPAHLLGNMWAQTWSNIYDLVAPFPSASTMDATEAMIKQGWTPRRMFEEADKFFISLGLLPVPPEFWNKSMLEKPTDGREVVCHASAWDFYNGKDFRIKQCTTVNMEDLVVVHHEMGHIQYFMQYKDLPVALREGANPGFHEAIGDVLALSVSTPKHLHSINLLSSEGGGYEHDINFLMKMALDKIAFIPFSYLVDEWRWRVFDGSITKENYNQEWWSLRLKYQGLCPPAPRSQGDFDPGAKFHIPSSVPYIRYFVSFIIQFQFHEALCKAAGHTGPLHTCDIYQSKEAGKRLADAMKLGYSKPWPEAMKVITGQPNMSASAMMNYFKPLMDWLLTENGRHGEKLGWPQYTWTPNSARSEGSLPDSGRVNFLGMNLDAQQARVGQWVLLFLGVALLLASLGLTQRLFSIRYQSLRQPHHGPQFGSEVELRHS
As to the kind of experiment: ACE inhibiting activity (Hip-His-Leu substrate, liberated hippuric acid OD at 228 nm). The conditions noted are these: final sample concentration 10 mM. It counts as biochemical. The method, then:
The blood pressure-lowering activity of the oligosaccharide for use in the invention was investigated by determining the angiotensin-converting enzyme inhibiting activity (hereinafter referred to as ACE inhibiting activity) thereof. Concretely, various oligosaccharides mentioned below were analyzed for their ACE inhibiting activity. • 1) Glc(α1-1α)Glc: α,α-trehalose (sold by Wako Jun-yaku, Lot No. KP7915), • 2) Glc(α1-1β)Glc: α,β-trehalose (sold by Sigma, Lot No. T-0299), • 3) Glc(β1-1β)Glc: β,β-trehalose (sold by Sigma, Lot No. T-0917), • 4) Glc(α1-2)Glc: kojibiose (sold by Sigma, Lot No. T-0299), • 5) Glc(β1-2)Glc: sophorose (sold by Sigma, Lot No. S-1404), • 6) Glc(α1-3)Glc: nigerose (sold by Wako Jun-yaku, Lot No. 142-06433), • 7) Glc(β1-3)Glc: laminaribiose (sold by Sigma, Lot No. L-6384), • 8) Glc(α1-4)Glc: maltose (sold by Sigma, Lot No. M-9171), • 9) Glc(β1-4)Glc: cellobiose (sold by Nacalai, Lot No. 075-11), • 10) Glc(α1-6)Glc: isomaltose (sold by Sigma, Lot No. I-7253), • 11) Glc(β1-6)Glc: gentiobiose (sold by Sigma, Lot No. G-3000), • 12) Gal(α1-6)Glc: melibiose (sold by Sigma, Lot No. M-5500), • 13) Gal(β1-6)Gal (sold by Sigma, Lot No. G-5643), • 14) Glc(α1-6) glucitol:Glc(α1-6) mannitol (=50:50) (sold by Sigma, Lot No. P8583-500), • 15) Glc(α1-6)Fru: palatinose (sold by Sigma, Lot No. M-5500), • 16) Fru(β2-1α)Glc: sucrose (sold by Wako Jun-yaku, Lot No. 192-00012), and • 17) Glc(α1-3) Fru(β2-1α) Glc: melezitose (sold by Nacalai, Lot No. 214-01). In these, Glu means glucose; Gal means galactose; and Fru means fructose.
Each oligosaccharide as above was dissolved in water (MilliQ water). Because of the solubility thereof, the sample was dissolved to have a final concentration of 10, 30 or 100 mM at the time when its activity is determined (Table 1). Next, with cooling with ice, 30 μl of the sample (Nos. 1 to 17 in Table 1) was put into a test tube. Then, 100 μl of ACE (sold by Wako Jun-yaku, Lot No. A6778) in a borate buffer (60 mU/ml) (pH 8.3) was added to each sample. As a blank, one also added with 250 μl of 1 N HCl serving as a reaction stopper was prepared. These were pre-incubated at 37° C. for 5 minutes. Further, 250 μl of a borate buffer (pH 8.3) containing as a substrate, 7.6 mM Hip-His-Leu (sold by Sigma, Lot No. 012-02195) and 608 mM sodium chloride (sold by Wako Jun-yaku, Lot No. 191-01665) was added. These were reacted at 37° C. for 30 minutes. Then, 250 μl of 1 NHCl was added and stirred, and the reaction was stopped. Then, 1.5 ml of ethyl acetate (sold by Wako Jun-yaku, Lot No. 051-00356) was added, and the thus-liberated hippuric acid was extracted out. After thus extracted, it was centrifuged at 3000 rpm for 10 minutes, and 0.5 ml of the supernatant (ethyl acetate layer)was recovered. The thus-recovered ethyl acetate was removed under reduced pressure, and 4 ml of water was added and stirred. The absorption of the dissolved hippuric acid at 228 nm (OD) was measured. The borate buffer used herein was prepared from Na2B4O7 (sold by Wako Jun-yaku, Lot No. 194-01415) and H3BO3 (sold by Wako Jun-yaku, Lot No. 012-02195) so that its pH could be 8.3. The data obtained were computed according to the calculation formula mentioned below, and the ACE inhibiting activity (%) of each sample was obtained as in Table 1 and FIG. 1. ACE Inhibiting Activity (%)={[(solvent OD−solvent blank OD)−(sample OD−sample blank OD)]/(solvent OD−solvent blank OD)}×100.
For the compound `OC[C@H]1O[C@H](O[C@H]2C(O)O[C@H](CO)[C@@H](O)[C@@H]2O)[C@H](O)[C@@H](O)[C@@H]1O` (stereo partly shown) [compound 4, kojibiose], the “ACE Inhibiting Activity (%)” value was 1.0%.

As to `OC[C@H]1O[C@H](O[C@H]2[C@H](O)[C@@H](CO)OC(O)[C@@H]2O)[C@H](O)[C@@H](O)[C@@H]1O` (stereo partly shown) [compound 6, nigerose], the “ACE Inhibiting Activity (%)” value came to 0.4%.

Still in this experiment, the particulars now being: final sample concentration 30 mM.
With `OC[C@H]1O[C@@](CO)(O[C@H]2O[C@H](CO)[C@@H](O)[C@H](O)[C@H]2O)[C@@H](O)[C@@H]1O` [compound 16, sucrose], the inhibition (in general, the change of the read-out against control, counted positive when it falls) at 30000 µM turned out to be 6.6%.

Consider `OC[C@H]1O[C@H](O[C@H]2O[C@H](CO)[C@@H](O)[C@H](O)[C@H]2O)[C@H](O)[C@@H](O)[C@@H]1O` [compound 1, α,α-trehalose], for which the “ACE Inhibiting Activity (%)” value came out at 1.2%.

Regarding `OC[C@H]1O[C@@](CO)(O[C@H]2O[C@H](CO)[C@@H](O)[C@H](O)[C@H]2O)[C@@H](O[C@H]2O[C@H](CO)[C@@H](O)[C@H](O)[C@H]2O)[C@@H]1O` [compound 17, melezitose], the inhibition at 30000 µM was found to be 5.5%.

As for `OC[C@H]1O[C@@H](O[C@H]2C(O)O[C@H](CO)[C@@H](O)[C@@H]2O)[C@H](O)[C@@H](O)[C@@H]1O` (stereo partly shown) [compound 5, sophorose], the “ACE Inhibiting Activity (%)” value came to 3.0%.

Take `OC[C@H]1O[C@@H](O[C@@H]2O[C@H](CO)[C@@H](O)[C@H](O)[C@H]2O)[C@H](O)[C@@H](O)[C@@H]1O` [compound 3, β,β-trehalose]: the “ACE Inhibiting Activity (%)” value worked out at 0.6%.

Consider `OC[C@H]1O[C@@H](O[C@H]2[C@H](O)[C@@H](CO)OC(O)[C@@H]2O)[C@H](O)[C@@H](O)[C@@H]1O` (stereo partly shown) [compound 7, laminaribiose], for which the “ACE Inhibiting Activity (%)” value was 0.8%.

As for `O=C[C@H](O)[C@@H](O)[C@H](O[C@@H]1O[C@H](CO)[C@@H](O)[C@H](O)[C@H]1O)[C@H](O)CO` [compound 9, cellobiose], the inhibition at 30000 µM is -1%.

On to `OC[C@H]1O[C@@H](O[C@H]2O[C@H](CO)[C@@H](O)[C@H](O)[C@H]2O)[C@H](O)[C@@H](O)[C@@H]1O` [compound 2, α,β-trehalose], for which the “ACE Inhibiting Activity (%)” value was found to be 1.6%.

Staying with this experiment, now noted: final sample concentration 100 mM.
Consider `OC[C@H]1O[C@H](OCC2O[C@@H](O)[C@H](O)[C@@H](O)[C@@H]2O)[C@H](O)[C@@H](O)[C@H]1O` (stereo partly shown) [compound 12, melibiose], for which the “ACE Inhibiting Activity (%)” value is 40.7%.

On to `OC[C@H]1O[C@@H](OC[C@H]2OC(O)[C@H](O)[C@@H](O)[C@H]2O)[C@H](O)[C@@H](O)[C@H]1O` (stereo partly drawn) [compound 13, Gal(β1-6)Gal], for which the “ACE Inhibiting Activity (%)” value is on record as 54.9%.

`OC[C@H]1O[C@H](OC[C@H]2OC(O)[C@H](O)[C@@H](O)[C@@H]2O)[C@H](O)[C@@H](O)[C@@H]1O` (stereo partly shown) [compound 10, isomaltose]: the “ACE Inhibiting Activity (%)” value came out at 27.2%.

Take `OC[C@H]1O[C@H](OC[C@H]2OC(O)(CO)[C@@H](O)[C@@H]2O)[C@H](O)[C@@H](O)[C@@H]1O` (stereo partly shown) [compound 15, palatinose]: the “ACE Inhibiting Activity (%)” value is on record as 93.5%.

Consider gentiobiose [compound 11], for which the “ACE Inhibiting Activity (%)” value was determined as 31.5%.

Turning to `OC[C@H]1O[C@H](O[C@H]2[C@H](O)[C@@H](O)C(O)O[C@@H]2CO)[C@H](O)[C@@H](O)[C@@H]1O` (mixture of isomers) [compound 8, maltose], the inhibition at 100000 µM was 6.3%.
